Data on 44 compounds can be found in PubChem BioAssay (NCI).

Several values for one entry are separate records, joined by “and”; a condition that tells them apart may be missing. Identical values can stand only once.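 Cultured in 96-well plates, cells were exposed to test compound for 48 hours across five concentrations. The concentration for 50% growth inhibition is given as GI50. Definition used: TGI = concentration required for complete inhibition of growth.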

The assay deals with MDA-MB-468 breast. Kind of assay: growth of human tumour cells (NCI), 48 h.

For the compound `CC(C)(C)c1ccc(S(=O)(=O)N[C@H]2CC[C@H]3[C@@H]4CCc5cc(O)ccc5[C@H]4CC[C@]23C)cc1`, the GI50 is 2740 nM and the TGI came to 9600 nM.

On to `N#Cc1ccc(N2Cc3cc(Cl)ccc3OC3=C2C(=O)N(Cc2ccccc2)C3=O)cc1`, for which the GI50 is 1220 nM and the TGI was 3260 nM.

In the case of `O=c1[nH]c(-c2ccccn2)nc2sc3c(c12)CCCCCC3`, the GI50 was 1660 nM and the TGI is > 100000 nM.

On to `CC(=O)N[C@@H]1CCC[C@H](C(=O)Nc2cc(-c3cnn4c3CC(C)(C)C4)c(Cl)cn2)C1`, for which the GI50 was < 10 nM and the TGI stood at 49 nM.

Regarding `COC(=O)Nc1nc2ccc(Sc3ccc(NC(=O)Nc4cc(C(F)(F)F)ccc4F)cc3)cc2[nH]1`, the GI50 is 882 nM and the TGI was found to be 4750 nM.

Turning to `C#Cc1cccc(Nc2ncnc3ccc(-c4cncc(NS(C)(=O)=O)c4)cc23)c1`, the GI50 is 208 nM and the TGI was 731 nM.

`C=CC[PH+](c1ccccc1)c1ccccc1.C=CC[PH+](c1ccccc1)c1ccccc1.[Cl][Pt][Cl]`: the GI50 was 2640 nM and the TGI amounted to 7100 nM.

Regarding `O=[N+]([O-])c1cccc(-c2ncc(-c3ccc(Cl)cc3Cl)[nH]2)c1`, the GI50 was 1630 nM and the TGI is 3540 nM.

Consider `COc1ncnc2c(-c3ccco3)cn(COCc3ccccc3)c12`, for which the GI50 was 2400 nM and the TGI was > 50000 nM.

`O=C(Nc1ccccc1)Nc1ccccc1CNc1nc(Nc2ccc(OCCN3CCCC3)cc2)ncc1Cl`: the GI50 was 1960 nM and the TGI is 9400 nM.

Consider `C#Cc1ccc(-n2c(/C=C/c3cc(OC)c(OC)c(OC)c3)nc3ncccc3c2=O)cc1`, for which the GI50 is 2830 nM and the TGI is > 100000 nM.

Turning to `COc1ccc(N(Cc2cc(OC)c(OC)c(OC)c2)C2OC(=O)c3ccccc32)cc1` (stereo not drawn), the GI50 was 328 nM and the TGI is > 100000 nM.

Consider `C=C(C)[C@@H]1CCC[C@]2(C(=O)O)CC[C@]3(C)[C@@H](CC[C@@H]4[C@@]5(C)C/C(=C/c6ccncc6)C(=O)C(C)(C)[C@@H]5CC[C@]43C)[C@@H]12`, for which the GI50 is 2100 nM and the TGI was 5490 nM.

Consider `Cc1cc(N)c2ccccc2[n+]1CCCCCCCCCC[n+]1c(C)cc(N)c2ccccc21`, for which the GI50 was 64.7 nM and the TGI worked out at 245 nM.

Consider `CN(C)c1ccc(Sc2ccc3nc(N)nc(N)c3c2)cc1`, for which the GI50 was 909 nM and the TGI was 2650 nM.

`Cn1c(COC(=O)NCCN2CCOCC2)nc2c(N3CCOCC3)nc(-c3ccccc3)nc21`: the GI50 is 1140 nM and the TGI worked out at 2950 nM.

Regarding `Cc1csc(Nc2nc(-c3cccc(Cl)c3)nc(C(Cl)(Cl)Cl)n2)n1`, the GI50 was 728 nM and the TGI worked out at 2180 nM.

Regarding `CC1(C)CC2(C)OC2C2(C1)N=NC(=Nc1ccccc1)O2` (stereo not drawn), the GI50 is 2470 nM and the TGI came to 7280 nM.

As to `O=c1c2cc(F)ccc2sc2c(NCCCN3CCCC3)nc3ccccc3c12`, the GI50 was 1170 nM and the TGI was determined as 2670 nM.

In the case of `C#Cc1nc(C2=C(C)C(O)/C(=N/O)C2)cs1` (stereo not drawn), the GI50 is 17600 nM and the TGI was > 100000 nM.

For `CCOc1cccnc1/C=N/NC(N)=S`, the GI50 was 2540 nM and the TGI was found to be 13300 nM.

Consider `CCCCCCN(CCCCCC)CC(O)c1cccc2ccc(Cl)cc12` (stereo not drawn), for which the GI50 was 3190 nM and the TGI was determined as 14600 nM.

In the case of `COc1ccc(-n2nc(C)c3c2N(C)C2(C)C[C@@H]4C3(C)[C@@H]3CC4(C2)N(C)c2c(c(C)nn2-c2ccc(OC)cc2)[C@H]3C)cc1` (stereo partly drawn), the GI50 was 4760 nM and the TGI turned out to be 64800 nM.

`COc1ccc(N=C2NN=C(c3c[nH]c4ccccc34)CS2)cc1OC`: the GI50 is 14600 nM and the TGI is > 60500 nM.

On to `Cn1cc(-c2nn3cc(-c4cccs4)nc3s2)c2cc(F)ccc21`, for which the GI50 was 1440 nM and the TGI is 5470 nM.

`CC(C)C[C@H](NC(=O)[C@@H](O)[C@H](N)Cc1ccccc1)C(=O)O`: the GI50 was 53400 nM and the TGI was > 100000 nM.

Regarding `COc1cc(OC)cc(N2CCN(C(=O)Nc3nc4cc(F)ccc4nc3OC)CC2)c1`, the GI50 is 28.3 nM and the TGI is 65100 nM.

As to `CC(=O)Nc1ccc(-n2cnc3cc(-c4ccc(OCCN5CCCCC5)cc4)ccc32)cc1`, the GI50 is 5640 nM and the TGI is 14100 nM.

On to `Cc1cnc2[nH]c(-c3ccccc3)cc(=O)c2c1`, for which the GI50 was 24600 nM and the TGI is > 100000 nM.

For `C[C@H](NC(=O)CCC(F)(F)F)C(=O)N[C@@H]1C(=O)N(CCO)c2ncccc2-c2ccccc21`, the GI50 was > 100000 nM and the TGI was > 100000 nM.

In the case of `COc1cc(C(=O)N/N=C/c2cccc([N+](=O)[O-])c2)cc(OC)c1OC`, the GI50 was 2770 nM and the TGI came to 14000 nM.

Take `CCNC(=O)Oc1ccc(/C(=C(\C)c2ccc(Cl)cc2)c2ccc(OCCN3CCCCC3)cc2)cc1`: the GI50 is 2660 nM and the TGI was determined as 9500 nM.

As for `COc1cc(/C=C\c2cccnc2Nc2ccccc2)cc(OC)c1OC`, the GI50 was 6770 nM and the TGI worked out at 48700 nM.

With `CCCCCCN1C(=O)CN=C1Nc1ccc2cc3ccc(NC4=NCC(=O)N4CCCCCC)cc3nc2c1`, the GI50 is 1640 nM and the TGI was found to be 3400 nM.

On to `COc1cc(OC)c(/C=C/S(=O)(=O)Cc2ccc(OC)c(NCC(=O)O)c2)c(OC)c1`, for which the GI50 is 121 nM and 187 nM; the TGI was > 100000 nM.

As to `O=c1[nH]c2cc(O)ccc2n2cc3c(F)cccc3c12`, the GI50 is 1360 nM and the TGI is > 100000 nM.

As for `CCCCCCCCCCCCNC(=O)[C@H]1CSC(c2ccc(OC)c(F)c2)N1` (stereo partly drawn), the GI50 is 1280 nM and the TGI was found to be 2820 nM.

Consider `CCN(CC)CCOc1ccc(C2=C(c3ccccc3)CCc3cc(OC)ccc32)cc1`, for which the GI50 is 138 nM and the TGI came out at 418 nM.

On to `C[C@]12CC[C@@H]3c4ccc(O)cc4CC[C@H]3[C@@H]1CC[C@@H]2NS(=O)(=O)c1ccc(-c2ccccc2)cc1`, for which the GI50 was 2960 nM and the TGI is 38800 nM.

For `CC(C)(C)c1cc(C(=O)Nc2cc3ccccc3cc2C(=O)NCCN)cc(C(C)(C)C)c1`, the GI50 was 347 nM and the TGI was determined as 989 nM.

Turning to `CCCCCCCCCCCCCCCCCC1=NC(C)(C)CN1CCO`, the GI50 is 1590 nM and the TGI was determined as 3040 nM.

For the compound `CC(C)n1nc(C#Cc2cccc(NC(=O)c3cccc(C(F)(F)F)c3)c2)c2c(N)ncnc21`, the GI50 is 4540 nM and the TGI is 28400 nM.

In the case of `Cc1ccc(OCCCCCCNCCO)c(C)c1`, the GI50 is 8480 nM and the TGI worked out at 23600 nM.

In the case of `COc1ccc(S(=O)(=O)NCCNc2nccc(-c3c(-c4ccccc4)nc4sccn34)n2)cc1`, the GI50 is 3030 nM and the TGI is > 100000 nM.
